Laboratory results reported in US20150165400A1, “CRYSTALLISATION PROCESS” (University of Bradford, priority 2012, published 2015).

Assays:
[1] = Stability study of triclinic form recrystallised from cyclohexane, PXRD; type: physicochemical; conditions: recrystallised from cyclohexane at 80° C., vacuum dried
Description: The product obtained was vacuum dried and the crystal form was confirmed by PXRD.

[2] = Pharmacokinetic study of artemisinin, plasma level by HPLC; type: in vivo, albino wistar rats; conditions: rats, 100 mg artemisinin in 0.5% aqueous CMC
Description: A pharmacokinetic study of artemisinin was carried out. The study was performed using 36 healthy albino wistar rats with a weight ranging from 180 to 200 grams. The wistar rats were taken and divided into three groups; a control group, the orthorhombic crystal form group and the triclinic crystal form group. A sparse technique was used to collect blood samples (n=6). The animals were housed in standard metabolism cages and were subject to fasting conditions for 12 hours before dosing. The animals were allowed free movement and access to water throughout the experiment. […] At predetermined time intervals, blood samples were obtained by the retro orbital technique and collected in EDTA tubes. Plasma was obtained by centrifugation of the blood sample at 3500 revolutions per minute (rpm) for 15 minutes. A volume of 200 μl of plasma was pipetted into Eppendorf tubes and 100 μl of internal standard (artemether solution […]) and 700 μl methanol were added. […] The collected sample was then subjected to analysis by HPLC. […] The HPLC system consisted of an Agilent 1200 series, UV detector (Agilent Technologies, […], Wokingham, United Kingdom) set at 210 nm and a C18 column (250×4.6 mm). […] The plasma concentration-time profiles were plotted and Areas Under Curve (AUC) were calculated (shown in FIG. 35) using the Trapezoidal rule.

[3] = In-vitro dissolution profile, USP-XXVI paddle method; type: physicochemical; conditions: water, 600 ml, 75 rpm, 37° C., 20 mg artemisinin
[4] = Effect of externally added solvents on extruded triclinic form, stability by PXRD; type: physicochemical
Description: Effect of different solvents such as acetone, ethanol, cyclohexane, methanol and water on extruded triclinic form was studied. […] FIGS. 21 to 25 show the PXRD patterns highlighting the effect of adding the different solvents to extrude. It was observed that conversion rate from triclinic to orthorhombic form was proportional to solubility of orthorhombic form in each solvent.

## C[C@@H]1CC[C@H]2[C@@H](C)C(=O)O[C@@H]3O[C@@]4(C)CC[C@@H]1[C@]32OO4 [artemisinin]
[1]
  stability of crystal form (transformation to orthorhombic form): transformed to orthorhombic form within a week

## C[C@@H]1CC[C@H]2[C@@H](C)C(=O)O[C@@H]3O[C@@]4(C)CC[C@@H]1[C@]32OO4 [orthorhombic form, artemisinin, reference compound]
[2]; oral, plasma
  average maximum concentration (Cmax): 16000 ng/mL
  average time where the concentration reached a maximum (Tmax): 4 h

## C[C@@H]1CC[C@H]2[C@@H](C)C(=O)O[C@@H]3O[C@@]4(C)CC[C@@H]1[C@]32OO4 [triclinic form, artemisinin]
[2]; albino Wistar, rat, plasma, po, 100 mg, plasma, read-out: average maximum concentration (Cmax)
  Cmax: 31000 ng/mL
[2]; albino Wistar, rat, plasma, po, 100 mg, plasma, read-out: average time where the concentration reached a maximum (Tmax)
  Tmax: 5 h
[2]; oral
  AUC compared with the orthorhombic form: two fold increase
[3]
  dissolution rate in comparison with starting material: four times greater
[4]; 0.2 ml solvent added to 3 g extruded sample
  rank order of transformation from triclinic to orthorhombic form: acetone>methanol>ethanol>cyclohexane>water
[4]; 0.2 ml water added to 3 g extruded sample
  transformation to orthorhombic form in the sample containing water: no transformation was observed
